Measured values published in PubChem BioAssay AID1259408 (Genetic Toxicology Data Bank (GENE-TOX), 2018).
The source made the active and inactive calls. No rule for the calls is given here.

Test system: GENE-TOX genotoxicity assays, various organisms and cells
Assay: GENE-TOX mutagenicity studies
[1] = Species/Cell Type: Bacillus subtilis (H17 vs M45), Assay Type: Rec-assay, spot test, DNA effects (bacterial DNA repair), Assay Code: REW+, Evaluation Type: Evaluation A (Pre-1980)
[2] = Species/Cell Type: Human lymphocytes, Assay Type: Sister-chromatid exchange (SCE) in vitro, Assay Code: SCL+D, Dose Response: With dose response, Evaluation Type: Evaluation B (Post-1980)
[3] = Species/Cell Type: Human, Assay Type: Sister-chromatid exchange (SCE) in vitro, Assay Code: SC1+D, Dose Response: With dose response, Evaluation Type: Evaluation B (Post-1980)
[4] = Species/Cell Type: Saccharomyces cerevisiae, Assay Type: Mitotic recombination or gene conversion, Assay Code: YEH-, Evaluation Type: Evaluation A (Pre-1980)
[5] = Species/Cell Type: Salmonella typhimurium (one or more of the five standard strains: TA98, TA100, TA1535, TA1537, and TA1538), Assay Type: Histidine reverse gene mutation, Ames assay, Assay Code: SAL+, Evaluation Type: Evaluation A (Pre-1980)
[6] = Species/Cell Type: Chinese hamster lung (V79) cells, Assay Type: Forward gene mutation at the HPRT or ouabain locus, Assay Code: V79-, Evaluation Type: Evaluation A (Pre-1980)
[7] = Species/Cell Type: Salmonella typhimurium (one or more of the five standard strains: TA98, TA100, TA1535, TA1537, and TA1538), Assay Type: Histidine reverse gene mutation, Ames assay, Assay Code: SALT, Evaluation Type: Evaluation A (Pre-1980)
[8] = Species/Cell Type: Salmonella typhimurium (one or more of the five standard strains: TA98, TA100, TA1535, TA1537, and TA1538), Assay Type: Histidine reverse gene mutation, Ames assay, Assay Code: SAL-, Evaluation Type: Evaluation A (Pre-1980)
[9] = Species/Cell Type: Salmonella typhimurium (one or more of the five standard strains: TA98, TA100, TA1535, TA1537, and TA1538), Assay Type: Histidine reverse gene mutation, Ames assay, Assay Code: SAL+*, Activation: With metabolic activation, Evaluation Type: Evaluation A (Pre-1980)
[10] = Species/Cell Type: Nonhuman, Assay Type: Chromosome aberrations in vitro, Assay Code: CY&+, Evaluation Type: Evaluation A (Pre-1980)
[11] = Species/Cell Type: Neurospora crassa, Assay Type: Forward gene mutation, Assay Code: NEF+, Evaluation Type: Evaluation A (Pre-1980)
[12] = Species/Cell Type: Bacillus subtilis (H17 vs M45), Assay Type: Rec-assay, spot test, DNA effects (bacterial DNA repair), Assay Code: REW-, Evaluation Type: Evaluation A (Pre-1980)
[13] = Species/Cell Type: Bacillus subtilis (H17 vs M45T), Assay Type: Rec-assay, spot test, DNA effects (bacterial DNA repair), Assay Code: REXT, Evaluation Type: Evaluation A (Pre-1980)
[14] = Species/Cell Type: Mammalian polychromatic erythrocytes, Assay Type: Micronucleus test, chromosome aberrations, Assay Code: MNT+, Evaluation Type: Evaluation B (Post-1980)
[15] = Species/Cell Type: Nonhuman, Assay Type: Sister-chromatid exchange (SCE) in vitro, Assay Code: SC2+, Evaluation Type: Evaluation B (Post-1980)
[16] = Species/Cell Type: Nonhuman, Assay Type: Sister-chromatid exchange (SCE) in vitro, Assay Code: SC2T, Evaluation Type: Evaluation B (Post-1980)

Cc1cc(O)c2c(c1)C(=O)C13C(=C2O)C(=O)C2C(O)C1C1C(O)C3C(=O)C3=C(O)c4c(O)cc(C)cc4C(=O)C321 (stereo not given)
mutagenic call [1]: active; positive

Cc1c2ccccc2c(C)c2c1ccc1cccc(F)c12
mutagenic call (Species/Cell Type: Chinese hamster lung (V79) cells, Assay Type: Forward gene mutation at the HPRT or ouabain locus, Assay Code: V79-*, Activation: With metabolic activation, Evaluation Type: Evaluation A (Pre-1980)): inactive; negative

CCn1c(=O)c2c(ncn2CC)n(CC)c1=O
mutagenic call (Species/Cell Type: Allium cepa, Assay Type: Chromosome aberrations, Assay Code: ALC-, Evaluation Type: Evaluation A (Pre-1980)): inactive; negative

ClC(Cl)Br
mutagenic call [2]: active; positive
mutagenic call [3]: active; positive
mutagenic call (Species/Cell Type: Nonhuman, Assay Type: Sister-chromatid exchange (SCE) in vivo, Assay Code: SC3+D, Dose Response: With dose response, Evaluation Type: Evaluation B (Post-1980)): active; positive
mutagenic call [4]: inactive; negative
mutagenic call [5]: active; positive

O[C@@H]1C=Cc2cc3ccc4cccc5ccc(c2[C@@H]1O)c3c45
mutagenic call [6]: inactive; negative
mutagenic call [7]: no conclusion

CC[C@@]1(O)C[C@H](O[C@H]2C[C@H](NC)[C@H](O[C@H]3C[C@H](O)[C@H](O[C@H]4CCC(=O)[C@H](C)O4)[C@H](C)O3)[C@H](C)O2)c2c(cc3c(c2O)C(=O)c2c(O)cccc2C3=O)[C@H]1C(=O)OC
mutagenic call [7]: no conclusion

NC(N)=NS(=O)(=O)c1ccc(N)cc1
mutagenic call [8]: inactive; negative

CC(=O)Nc1ccc(N=Nc2cc(C)ccc2O)cc1
call (Species/Cell Type: Nonhuman, Assay Type: In vivo carcinogenicity studies, Assay Code: CCG+, Evaluation Type: Evaluation A (Pre-1980)): active; positive

O=C1c2ccccc2C(=O)c2c1cc(O[C@H]1O[C@H](CO[C@@H]3OC[C@@H](O)[C@H](O)[C@H]3O)[C@@H](O)[C@H](O)[C@H]1O)c(CO)c2O
mutagenic call [9]: active; positive

O=P1(N2CC2)NC2CCCC3CCCC(N1)C32 (stereo not given)
mutagenic call (Species/Cell Type: Drosophila melanogaster, Assay Type: Sex-linked recessive lethal gene mutation, Assay Code: SRL+, Evaluation Type: Evaluation A (Pre-1980)): active; positive

NC(=O)c1ncn([C@@H]2O[C@H](CO)[C@@H](O)[C@H]2O)c1O
mutagenic call (Species/Cell Type: Nonhuman, Assay Type: Sister-chromatid exchange (SCE) in vitro, Assay Code: SC2+D, Dose Response: With dose response, Evaluation Type: Evaluation A (Pre-1980)): active; positive

CCCCO
mutagenic call (Species/Cell Type: Nonhuman, Assay Type: Sister-chromatid exchange (SCE) in vitro, Assay Code: SC2-, Evaluation Type: Evaluation A (Pre-1980)): inactive; negative
mutagenic call [8]: inactive; negative

NNC(=O)COc1ccc(Br)cc1CN1CCCCC1
mutagenic call (Species/Cell Type: Saccharomyces cerevisiae, Assay Type: Reverse gene mutation, Assay Code: YERT, Evaluation Type: Evaluation A (Pre-1980)): no conclusion

Clc1ccc(C(c2ccc(Cl)cc2)C(Cl)Cl)cc1
mutagenic call (Species/Cell Type: Drosophila melanogaster, Assay Type: Sex-linked recessive lethal gene mutation, Assay Code: SRLT, Evaluation Type: Evaluation A (Pre-1980)): no conclusion
mutagenic call (Species/Cell Type: Escherichia coli polA (W3119 vs P3478), Assay Type: Rec-assay, DNA effects (bacterial DNA repair), Assay Code: RE1T, Evaluation Type: Evaluation A (Pre-1980)): no conclusion
mutagenic call [10]: active; positive
mutagenic call (Species/Cell Type: Serratia marcesens, Assay Type: Reverse gene mutation, host-mediated assay, Assay Code: HMC+, Evaluation Type: Evaluation A (Pre-1980)): active; positive

Nc1nc(NO)c2[nH]cnc2n1
mutagenic call (Species/Cell Type: Escherichia coli WP2, Assay Type: Tryptophan reverse gene mutation, Assay Code: WP2T, Evaluation Type: Evaluation A (Pre-1980)): no conclusion
mutagenic call (Species/Cell Type: Escherichia coli WP2 UVRA, Assay Type: Tryptophan reverse gene mutation, Assay Code: WPUT, Evaluation Type: Evaluation A (Pre-1980)): no conclusion
mutagenic call [11]: active; positive

O=CNc1nc(-c2cc([N+](=O)[O-])c[nH]2)cs1
mutagenic call [7]: no conclusion

Cc1ncc([N+](=O)[O-])n1CC(=O)O
mutagenic call (Species/Cell Type: Human lymphocytes, Assay Type: Sister-chromatid exchange (SCE) in vitro, Assay Code: SCLT, Evaluation Type: Evaluation B (Post-1980)): no conclusion
mutagenic call (Species/Cell Type: Human, Assay Type: Sister-chromatid exchange (SCE) in vitro, Assay Code: SC1T, Evaluation Type: Evaluation B (Post-1980)): no conclusion

COc1c(C)c2c(c(O)c1C/C=C(\C)CCC(=O)O)C(=O)OC2
mutagenic call [12]: inactive; negative
mutagenic call [10]: active; positive
mutagenic call [7]: no conclusion

CCCCN(CCCC(=O)O)N=O
mutagenic call (Species/Cell Type: Salmonella typhimurium (one or more of the five standard strains: TA98, TA100, TA1535, TA1537, and TA1538), Assay Type: Histidine reverse gene mutation, Ames assay, Assay Code: SAL+/-*, Activation: With metabolic activation, Evaluation Type: Evaluation A (Pre-1980)): inactive; positive without activation, negative with activation

CC(C)=CC1C(C(=O)OCc2cccc(Oc3ccccc3)c2)C1(C)C (stereo not given)
mutagenic call (Species/Cell Type: Human diploid fibroblasts, Assay Type: Unscheduled DNA synthesis (UDS) in vitro, DNA effects, Assay Code: UDH-, Evaluation Type: Evaluation A (Pre-1980)): inactive; negative
mutagenic call [4]: inactive; negative

O=C(Nc1cc(Cl)cc(Cl)c1O)c1c(O)c(Cl)cc(Cl)c1Cl
mutagenic call (Species/Cell Type: Mammalian polychromatic erythrocytes, Assay Type: Micronucleus test, chromosome aberrations, Assay Code: MNTT, Evaluation Type: Evaluation B (Post-1980)): no conclusion

O=C1OC(c2ccc(O)cc2)(c2ccc(O)cc2)c2ccccc21
mutagenic call [12]: inactive; negative
mutagenic call [13]: no conclusion

[O-2].[O-2].[O-2].[Sb+3].[Sb+3]
mutagenic call [1]: active; positive

Cn1ccc(CO)c1
mutagenic call [2]: active; positive
mutagenic call [3]: active; positive

c1ccc2c(c1)ccc1cc3ccc4ccccc4c3cc12
mutagenic call [9]: active; positive

CC(=O)Nc1nc(-c2cc([N+](=O)[O-])c[nH]2)cs1
mutagenic call [7]: no conclusion

COc1ccc2c3c4n(c2c1)[C@@H](C=C(C)C)OOC(C)(C)C[C@@H]4N1C(=O)[C@@H]2CCCN2C(=O)[C@]1(O)[C@H]3O
mutagenic call [4]: inactive; negative
mutagenic call [7]: no conclusion

O=[As]O
mutagenic call [1]: active; positive
mutagenic call (Species/Cell Type: Chinese hamster ovary (CHO) cells, Assay Type: Forward gene mutation at the HPRT locus, Assay Code: CHOT, Evaluation Type: Evaluation B (Post-1980)): no conclusion
mutagenic call (Species/Cell Type: Human lymphocytes, Assay Type: Sister-chromatid exchange (SCE) in vitro, Assay Code: SCL+D*, Activation: With metabolic activation, Dose Response: With dose response, Evaluation Type: Evaluation B (Post-1980)): active; positive
mutagenic call (Species/Cell Type: Human, Assay Type: Sister-chromatid exchange (SCE) in vitro, Assay Code: SC1+D*, Activation: With metabolic activation, Dose Response: With dose response, Evaluation Type: Evaluation B (Post-1980)): active; positive
mutagenic call [14]: active; positive
mutagenic call [15]: active; positive
mutagenic call (Species/Cell Type: Syrian hamster embryo (SA7/SHE) cells, Assay Type: Cell transformation, viral enhanced, Assay Code: CT7+, Evaluation Type: Evaluation A (Pre-1980)): active; positive

c1cncc(C2=NCCC2)c1
mutagenic call [16]: no conclusion

O=C(O)CC(O)(CC(=O)O)C(=O)O
mutagenic call [14]: active; positive

C1C2OC2C2OC12 (stereo not given)
mutagenic call [11]: active; positive

O=[N+]([O-])c1cc([N+](=O)[O-])c2ccc(S(=O)(=O)O)cc2c1O
mutagenic call (Species/Cell Type: Bacillus subtilis (H17 vs M45), Assay Type: Rec-assay, spot test, DNA effects (bacterial DNA repair), Assay Code: REWT, Evaluation Type: Evaluation A (Pre-1980)): no conclusion
mutagenic call [13]: no conclusion
mutagenic call [5]: active; positive
mutagenic call [7]: no conclusion

FC(F)OC(F)(F)C(F)Cl (stereo not given)
mutagenic call [6]: inactive; negative
mutagenic call (Species/Cell Type: Human lymphocytes, Assay Type: Sister-chromatid exchange (SCE) in vivo, Assay Code: SCY+, Evaluation Type: Evaluation B (Post-1980)): active; positive
mutagenic call (Species/Cell Type: Mouse, Sex: Male, Assay Type: Sperm morphology, Assay Code: SPIT, Evaluation Type: Evaluation A (Pre-1980)): no conclusion
mutagenic call [16]: no conclusion
mutagenic call [7]: no conclusion

O.O.O.O.O.[Cd+2].[Cd+2].[Cl-].[Cl-].[Cl-].[Cl-]
mutagenic call [15]: active; positive
